Legend:
Type in all cases: functional
Parameters in all cases: concentration or dose not given beside the values
Plasmodium berghei = test: MMV: P. berghei-infected blood was withdrawn from mice by cardiac pucture before being immediately added to ookinete culture medium containing test compounds. 26 hr later, GFP-positive ookinetes were identified and counted by automated microscopy. All compounds were tested in 4 independent experiments and data presented here is the mean.
Plasmodium falciparum [1] = test: (§1) MMV: P. falciparum NF54 functionally mature Stage V gametocytes were incubated for 24 hr in the presence of the test compounds. Gamete formation was then triggered by addition of 2uM xantheurenic acid and temperature decrease to ~20C. Male gamete exflagellation was recorded and analysed by automated microscopy after 20 min. All compounds were tested in 4 independent experiments and data presented here is the mean.
Plasmodium falciparum [2] = test: as §1, with “Female” for “Male”, “formation” for “exflagellation”, “24 hr later” for “and analysed”, “detection of surface labelling of female gametes with a Cy3-conjugated antibody reactive to Pfs25.” for “after 20 min.”; conditions: NF54, 24 h

| SMILES | inhibition (Plasmodium berghei) | inhibition (Plasmodium falciparum [1]) | inhibition (Plasmodium falciparum [2]) |
| --- | --- | --- | --- |
| Cc1cc(NC(=O)c2cccc(C(F)(F)F)c2)n(-c2nc(-c3ccc4c(c3)OCO4)cs2)n1 | -1.403% | 11.3% | 17.1% |
| CN1CCN(c2ncnc3c2[nH]c2ccc(Cl)cc23)CC1 | -3.248% | -2.21% | 6.75% |
| CC(C)CNC(=O)c1c(N)n(CCc2ccccc2F)c2nc3ccccc3nc12 | -6.274% | 24.1% | -24.2% |
| Cc1cccc(-n2ncc3c(O)nc(-n4nc(C)cc4NC(=O)c4cc5ccccc5o4)nc32)c1 | -5.778% | 34.4% | -18.6% |
| Cc1cc(Nc2ccc3ccccc3c2)n2ncnc2n1 | -3.995% | -4.18% | -8.79% |
| CN(C)CCNc1cc(-c2ccccc2)nc2ccccc12 | -1.411% | 2.52% | -24.1% |
| COc1ccc(N2CCN(C(CNC(=O)C3CCCCC3)c3ccc4c(c3)OCO4)CC2)cc1 (centres undefined) | -5.593% | 29.7% | -22.9% |
| FC(F)(F)c1cccc(Nc2nc3ccccc3nc2Nc2cccc(C(F)(F)F)c2)c1 | -0.8978% | 24.6% | -14.6% |
| c1ccc(-c2ccc(-c3nc4ccccc4[nH]3)cc2)cc1 | -1.667% | 15.6% | -7.69% |
| COc1ccc2nc(C)cc(Nc3cccc(O)c3)c2c1.Cl | -5.92% | -12.1% | -5.48% |
| COC(=O)c1ccc(C2C3=C(O)CC(c4ccc(F)cc4)CC3=Nc3ccccc3N2C(=O)c2ccccc2)cc1 (centres undefined) | -3.179% | -76.8% | -31.4% |
| COc1cccc(NC(=O)Cn2c(C)c(C#N)c3ccccc32)c1 | -1.894% | 21.9% | -23.6% |
| O=C(NC1CCCCC1)C(c1cccs1)N(CCc1ccccc1)C(=O)c1ccco1 (centres undefined) | -4.107% | 6.52% | -15.1% |
| COCCNC(=O)c1ccc(OC2CCN(Cc3ccc(F)c(F)c3)CC2)c(Cl)c1 | -5.71% | 16.4% | -14.3% |
| CCC(=O)Nc1nnc(Cc2ccc(OC)c(OC)c2)s1 | -4.332% | 19.9% | -4.58% |
| Cl.c1ccc2c(NCCCCCCNc3c4c(nc5ccccc35)CCCC4)c3c(nc2c1)CCCC3 | -0.2313% | 18.8% | -9.36% |
| Brc1ccc(Nc2nc3ccccc3nc2Nc2ccc(Br)cc2)cc1 | -6.195% | 18.1% | -0.532% |
| Cc1cc(Nc2ccc(C)c(Cl)c2)n2nc(C(F)(F)F)nc2n1 | -5.541% | 17.1% | -44.8% |
| O=C(NCCCN1CCC(N2CCCCC2)CC1)C1=Cc2cc(Br)ccc2OC1 | -4.183% | 8.14% | 15% |
| Cc1ccnc(NC(c2cccc(OCc3ccccc3)c2)c2ccc3cccnc3c2O)c1 (centres undefined) | -0.9408% | 11% | -12.7% |
| CCN1CCN(c2cc(C)c3cc(NC(=O)c4ccc(OC)c(OC)c4)ccc3n2)CC1 | -2.902% | -3.72% | -8.68% |

| SMILES | inhibition (Plasmodium berghei) | inhibition (Plasmodium falciparum [1]) | inhibition (Plasmodium falciparum [2]) |
| --- | --- | --- | --- |
| CCCCOC(=O)c1ccc(Nc2cc(C)nc3ccc(OC)cc23)cc1 | -4.495% | -6.31% | -6.56% |
| CC(NCc1ccccc1)c1cc(Cl)ccc1O (centres undefined) | -6.231% | -5.35% | -17.3% |
| COc1ccc2c(c1)OC(O)(C(F)(F)C(F)(F)F)CC2=O (centres undefined) | -0.6954% | -139% | -4.89% |
| Oc1ccc(Cl)cc1CNc1nc2ccccc2[nH]1 | -5.247% | 53.3% | -26.8% |
| O=C(c1ccccc1F)N(Cc1ccc(Cl)cc1)c1ccccn1 | -2.284% | 20.3% | -28.6% |
| COc1ccc(C2NCCc3c2[nH]c2ccccc32)cc1CN1CCN(c2ccc(F)cc2)CC1.Cl (centres undefined) | -1.071% | 5.86% | -18.1% |
| COc1ccc(C(=O)Nc2ccc(Cl)cc2C(=O)Nc2ccncc2)cc1 | -4.155% | 14.4% | -19.7% |
| O=C1c2ccc3c4c(ccc(c24)C(=O)N1CCCCO)C(=O)N(CCCCO)C3=O | -0.9886% | -2.41% | -45.3% |
| OC(Cn1nnc2ccccc21)Cn1c2ccc(Br)cc2c2cc(Br)ccc21 (centres undefined) | -0.4033% | 33.4% | -23.3% |
| CCOc1ccc(-n2cc(-c3ccccc3)c3c(SCc4cc(C)ccc4C)ncnc32)cc1 | -4.1% | 13% | -11.5% |
| Cc1ccc(C)c(Cn2c(N3CCC(C(=O)NCc4cccs4)CC3)nc3ccccc32)c1 | -3.865% | -124% | 9.01% |
| CN(C)c1ccc(-c2nc3cc(N)ccc3[nH]2)cc1 | -2.982% | 12.2% | -7.9% |
| CCOC(=O)c1cnc2ccc(Cl)cc2c1NCCCN(C)C | -2.955% | -9.15% | -11.1% |
| O=C(Nc1ccc(C23CC4CC(CC(c5ccccc5)(C4)C2)C3)cc1)c1cccs1 | -2.527% | 18.1% | -23.5% |
| Oc1c(C(Nc2ccccn2)c2cccc(Oc3ccccc3)c2)ccc2cccnc12 (centres undefined) | -4.794% | -38.1% | -17.6% |
| COc1ccccc1CNC(=O)CCn1c(=O)[nH]c2ccsc2c1=O | -0.4809% | 22.3% | -26.3% |
| Cc1ccc(Nc2nc(N)c3ccccc3n2)cc1Cl | -5.317% | -51.8% | -26.1% |
| Cc1ccc(CN2CCC(C(=O)Nc3ccc(-c4cc5ccccc5[nH]4)cc3)CC2)o1 | -4.815% | 7.05% | -19.7% |
| CCn1c(SCC(=O)Nc2cc(C(F)(F)F)ccc2Cl)nc2ccccc2c1=O | -2.806% | 22.5% | -19.5% |
| Cc1ccc2nc(C)cc(Nc3cccc(C(F)(F)F)c3)c2c1.Cl | -4.574% | -27.5% | -16.2% |
| O=C(Nc1cccc(C(F)(F)F)c1)c1cc(Cl)ccc1O | -2.67% | 24.9% | -6.94% |

| SMILES | inhibition (Plasmodium berghei) | inhibition (Plasmodium falciparum [1]) | inhibition (Plasmodium falciparum [2]) |
| --- | --- | --- | --- |
| CC(C)c1ccc(CNCC(O)c2ccccc2)cc1.Cl (centres undefined) | -4.617% | 4.92% | -2.85% |
| CC1CC(C)CN(C(=O)c2ccc(Cl)cc2Cl)C1 (centres undefined) | -6.319% | 30.8% | -18.2% |
| COc1ccc(N2CCN(C(CNC(=O)CC(C)(C)C)c3ccc4c(c3)OCO4)CC2)cc1 (centres undefined) | -5.344% | 1.8% | -24.8% |
| COc1ccc(C2N(C)c3ccccc3N2C)cc1 | -4.492% | 10.4% | 24.3% |
| CCOc1ccc(/C=C/c2nc(=O)c3ccccc3o2)cc1 | -4.823% | 23.7% | -30.2% |
| O=C(Nc1ccccc1O)c1ccc(-c2ccc(Cl)cc2Cl)o1 | -6.243% | 18.9% | -20.6% |
| CCCOCc1cc(CN2CCN(c3cccc(Cl)c3)CC2)c(O)c2ncccc12 | -5.698% | 19% | 14.3% |
| CCOc1ccc(-c2nc(NC(=O)c3cccc(S(C)(=O)=O)c3)sc2C)cc1 | -6.261% | 0.81% | -21% |
| COc1ccc(-c2nc3cc(Cc4ccc5[nH]c(-c6ccc(OC)cc6)nc5c4)ccc3[nH]2)cc1 | -5.308% | 28.3% | -12.5% |
| Cc1ccc2c(C)nc(Nc3nc(C)cc(-c4ccccc4)n3)nc2c1 | -0.3138% | -11.5% | -39.7% |
| c1ccc(CNc2nc(Nc3ccccc3)nc3ccccc23)cc1 | -4.491% | -50.6% | -29.2% |
| Cc1cccc(N2C(=O)C3C(C2=O)C2(c4ccccc4)C(=O)C3(c3ccccc3)C(c3ccc4c(c3)OCO4)=C2c2ccc3c(c2)OCO3)c1 (centres undefined) | -6.32% | 32.3% | -2.01% |
| COc1ccc2c(c1OC)C(=O)N1c3ccccc3N=C(c3ccc(C)cc3)CC21 (centres undefined) | -1.051% | 8.91% | -8.58% |
| COc1ccccc1N1CCN(C(CNS(=O)(=O)c2ccc(Cl)cc2)c2cccnc2)CC1 (centres undefined) | -1.627% | 3.66% | -39.2% |
| COc1cc(OC)cc(N2C(=O)N(Cc3ccc(C(C)(C)C)cc3)c3ccccc3S2(=O)=O)c1 | -1.934% | 8.32% | -7.89% |
| Cc1cc(N2CCN(C3CCCC3)CC2)n2c(nc3ccccc32)c1C#N | -5.169% | 6.61% | -12.2% |
| CCN(CC)CCCNc1nc(-c2ccc(Cl)cc2)nc2ccccc12 | -4.546% | -49.2% | -19.2% |
| CCCn1c(=N)c(C(=O)NC2CCCCC2)cc2c(=O)n3cccc(C)c3nc21 | -1.292% | 22.1% | -11.9% |
| CCN1CCN(c2c(C(=O)c3ccccc3)cnc3cc(OC)c(OC)cc23)CC1 | -4.456% | -41.4% | -6.16% |
| C=C(C)CCC(C)N1CCC(N2CCC(C(=O)NCCc3ccccc3)CC2)CC1 (centres undefined) | -5.335% | 9.7% | -6.85% |
| CCOC(=O)c1c[nH]c2c(CC)cccc2c1=O | -1.306% | 21.5% | 8.74% |

From ChEMBL document CHEMBL3301451, “MMV Malaria Box gametocyte functional viability assay screening”
